How the values were obtained:
[1] = tested on: A549-ACE2 infected with SARS-CoV-2; assay: morphology score (similarity to uninfected cells); higher = more like uninfected cells; conditions: 24 h
Vero E6 [2] = assay: cell viability relative to DMSO; higher = less toxic; conditions: 72 h
U2OS [3] = assay: as above; conditions: 72 h
Calu-3 [4] = assay: as above; conditions: 72 h
HepG2 [5] = assay: as above; conditions: 72 h
Caco-2 [6] = assay: as above; conditions: 72 h
[7] = tested on: A549-ACE2 infected with SARS-CoV-2; assay: SARS-CoV-2 infection rate relative to DMSO; higher = more infection; conditions: 24 h
[8] = tested on: A549-ACE2 infected with SARS-CoV-2; assay: cell count relative to DMSO; higher = less toxic; conditions: 24 h
Vero E6 [9] = assay: drug sensitivity score (DSS) for viability; higher = more toxic; extreme values may be limits of the assay; conditions: 72 h
U2OS [10] = assay: as above; conditions: 72 h
Calu-3 [11] = assay: as above; conditions: 72 h
HepG2 [12] = assay: as above; conditions: 72 h
Caco-2 [13] = assay: as above; conditions: 72 h
A549-ACE2 [14] = assay: phospholipidosis EC50; higher = less potent phospholipidosis inducer
A549-ACE2 [15] = assay: drug-induced phospholipidosis relative to tamoxifen; higher = more phospholipidosis
Calu-3 [16] = assay: relative viability EC50 (midpoint between 100% and the lowest measured viability); higher = less toxic; conditions: 72 h
HepG2 [17] = assay: as above; conditions: 72 h
Vero E6 [18] = assay: as above; conditions: 72 h
U2OS [19] = assay: as above; conditions: 72 h
Caco-2 [20] = assay: as above; conditions: 72 h

Compound: CN1CCC(CNc2ccc3ncc(-c4cccc(OC(F)(F)F)c4)n3n2)CC1 [SGI-1776]
- morphology score ([1]; 0.1 µM): 0.31
- morphology score ([1]; 0.3 µM): -0.09
- morphology score ([1]; 1 µM): 0.43
- morphology score ([1]; 3 µM): 0.76
- cell viability (Vero E6 [2]; 1 nM): 104%
- cell viability (Vero E6 [2]; 10 nM): 104%
- cell viability (Vero E6 [2]; 100 nM): 99.5%
- cell viability (Vero E6 [2]; 1000 nM): 97%
- cell viability (Vero E6 [2]; 10000 nM): 55%
- cell viability (U2OS [3]; 1 nM): 102%
- cell viability (U2OS [3]; 10 nM): 95.4%
- cell viability (U2OS [3]; 100 nM): 100%
- cell viability (U2OS [3]; 1000 nM): 92.1%
- cell viability (U2OS [3]; 10000 nM): 52%
- cell viability (Calu-3 [4]; 1 nM): 95.2%
- cell viability (Calu-3 [4]; 10 nM): 88.7%
- cell viability (Calu-3 [4]; 100 nM): 97.4%
- cell viability (Calu-3 [4]; 1000 nM): 92.8%
- cell viability (Calu-3 [4]; 10000 nM): 46.2%
- cell viability (HepG2 [5]; 1 nM): 101%
- cell viability (HepG2 [5]; 10 nM): 95.1%
- cell viability (HepG2 [5]; 100 nM): 98.7%
- cell viability (HepG2 [5]; 1000 nM): 99.9%
- cell viability (HepG2 [5]; 10000 nM): 37.7%
- cell viability (Caco-2 [6]; 1 nM): 102%
- cell viability (Caco-2 [6]; 10 nM): 98.7%
- cell viability (Caco-2 [6]; 100 nM): 101%
- cell viability (Caco-2 [6]; 1000 nM): 88.2%
- cell viability (Caco-2 [6]; 10000 nM): 58.6%
- SARS-CoV-2 infection rate ([7]; 0.1 µM): 94%
- SARS-CoV-2 infection rate ([7]; 0.3 µM): 106%
- SARS-CoV-2 infection rate ([7]; 1 µM): 84%
- SARS-CoV-2 infection rate ([7]; 3 µM): 48%
- cell count ([8]; 0.1 µM): 105%
- cell count ([8]; 0.3 µM): 95%
- cell count ([8]; 1 µM): 106%
- cell count ([8]; 3 µM): 113%
- drug sensitivity score (Vero E6 [9]): 2.8
- drug sensitivity score (U2OS [10]): 3.8
- drug sensitivity score (Calu-3 [11]): 4.1
- drug sensitivity score (HepG2 [12]): 3.4
- drug sensitivity score (Caco-2 [13]): 3.9
- phospholipidosis EC50 (A549-ACE2 [14]; 24 h): 5.98 µM
- phospholipidosis EC50 (A549-ACE2 [14]; 48 h): 11.8 µM
- phospholipidosis EC50 (A549-ACE2 [14]; 72 h): 7.83 µM
- drug-induced phospholipidosis (A549-ACE2 [15]; 0.3 µM, 24 h): 8.28%
- drug-induced phospholipidosis (A549-ACE2 [15]; 0.3 µM, 48 h): 2.75%
- drug-induced phospholipidosis (A549-ACE2 [15]; 0.3 µM, 72 h): 3.7%
- drug-induced phospholipidosis (A549-ACE2 [15]; 0.833333 µM, 24 h): 2.67%
- drug-induced phospholipidosis (A549-ACE2 [15]; 0.833333 µM, 48 h): 0.46%
- drug-induced phospholipidosis (A549-ACE2 [15]; 0.833333 µM, 72 h): -1.53%
- drug-induced phospholipidosis (A549-ACE2 [15]; 3.33333 µM, 24 h): 25.6%
- drug-induced phospholipidosis (A549-ACE2 [15]; 3.33333 µM, 48 h): 18.4%
- drug-induced phospholipidosis (A549-ACE2 [15]; 3.33333 µM, 72 h): 13.6%
- drug-induced phospholipidosis (A549-ACE2 [15]; 6.66667 µM, 24 h): 59.2%
- drug-induced phospholipidosis (A549-ACE2 [15]; 6.66667 µM, 48 h): 53.2%
- drug-induced phospholipidosis (A549-ACE2 [15]; 6.66667 µM, 72 h): 50.1%
- drug-induced phospholipidosis (A549-ACE2 [15]; 10 µM, 24 h): 81%
- drug-induced phospholipidosis (A549-ACE2 [15]; 10 µM, 48 h): 85.9%
- drug-induced phospholipidosis (A549-ACE2 [15]; 10 µM, 72 h): 79.6%
- drug-induced phospholipidosis (A549-ACE2 [15]; 30 µM, 24 h): 100%
- relative viability EC50 (Calu-3 [16]): 2.09 µM
- relative viability EC50 (HepG2 [17]): 3.15 µM

Compound: CCc1ccc(Cc2ccc3c(c2)[C@]2(OC3)O[C@H](CO)[C@@H](O)[C@H](O)[C@H]2O)cc1 [tofogliflozin]
- cell viability (Vero E6 [2]; 1 nM): 93.9%
- cell viability (Vero E6 [2]; 10 nM): 95.6%
- cell viability (Vero E6 [2]; 100 nM): 99.4%
- cell viability (Vero E6 [2]; 1000 nM): 94.6%
- cell viability (Vero E6 [2]; 10000 nM): 98.4%
- cell viability (U2OS [3]; 1 nM): 97.9%
- cell viability (U2OS [3]; 10 nM): 96.9%
- cell viability (U2OS [3]; 100 nM): 97.5%
- cell viability (U2OS [3]; 1000 nM): 98%
- cell viability (U2OS [3]; 10000 nM): 95.5%
- cell viability (Calu-3 [4]; 1 nM): 90.9%
- cell viability (Calu-3 [4]; 10 nM): 92.7%
- cell viability (Calu-3 [4]; 100 nM): 108%
- cell viability (Calu-3 [4]; 1000 nM): 103%
- cell viability (Calu-3 [4]; 10000 nM): 108%
- cell viability (HepG2 [5]; 1 nM): 106%
- cell viability (HepG2 [5]; 10 nM): 94.3%
- cell viability (HepG2 [5]; 100 nM): 102%
- cell viability (HepG2 [5]; 1000 nM): 105%
- cell viability (HepG2 [5]; 10000 nM): 95.5%
- cell viability (Caco-2 [6]; 1 nM): 97.8%
- cell viability (Caco-2 [6]; 10 nM): 98.5%
- cell viability (Caco-2 [6]; 100 nM): 86.1%
- cell viability (Caco-2 [6]; 1000 nM): 97%
- cell viability (Caco-2 [6]; 10000 nM): 90.5%
- drug sensitivity score (Vero E6 [9]): 0
- drug sensitivity score (U2OS [10]): 0
- drug sensitivity score (Calu-3 [11]): 0
- drug sensitivity score (HepG2 [12]): 0
- drug sensitivity score (Caco-2 [13]): 0
- relative viability EC50 (Vero E6 [18]): > 10 µM
- relative viability EC50 (U2OS [19]): > 10 µM
- relative viability EC50 (Calu-3 [16]): > 10 µM
- relative viability EC50 (HepG2 [17]): > 10 µM
- relative viability EC50 (Caco-2 [20]): > 10 µM

Source: the supplement of paper PMC13380429
